Data published in ChEMBL document CHEMBL5665443, “Enzyme Inhibitor Single Concentration assay results for EUbOPEN Chemogenomics Library” (2024).

Assays:
[1] = biological target: N-glycosylase/DNA lyase (Homo sapiens) (UniProt O15527); conditions: Hit No;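 also: OGG1 cleavage of a quenched duplex DNA oligonucleotide, coupled to APE1 for strand incision, read as fluorescence at 594 nm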
Description: Inhibition of OGG1 by quantifying inhibition of OGG1-mediated cleavage and dissociation of quenched duplex DNA oligonucleotides, measured as fluorescence at 594 nm. To generate a functional strand incision and increase turn-over this assay is coupled to APE1.

[2] = biological target: Uracil-DNA glycosylase (Homo sapiens) (UniProt P13051); conditions: Hit No;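 also: UNG excision on a quenched double-stranded DNA oligo probe, with APE1 added for strand incision and turnover, read as fluorescence at 594 nm as strands separate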
Chain of Uracil-DNA glycosylase (Homo sapiens) (P13051 whole entry): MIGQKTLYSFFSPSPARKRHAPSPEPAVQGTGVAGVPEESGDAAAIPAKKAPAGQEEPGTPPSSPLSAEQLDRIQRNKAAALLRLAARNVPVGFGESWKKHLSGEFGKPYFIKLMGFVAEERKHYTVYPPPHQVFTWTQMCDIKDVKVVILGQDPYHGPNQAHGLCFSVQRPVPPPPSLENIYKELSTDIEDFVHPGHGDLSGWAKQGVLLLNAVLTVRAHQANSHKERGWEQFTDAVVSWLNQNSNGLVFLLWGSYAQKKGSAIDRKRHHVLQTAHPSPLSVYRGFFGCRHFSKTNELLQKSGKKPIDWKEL
Description: Inhibition of UNG by quantifying inhibition of UNG-mediated cleavage and dissociation of quenched duplex DNA oligonucleotides, measured as fluorescence at 594 nm. To generate a functional strand incision and increase turn-over this assay is coupled to APE1.

[3] = biological target: T1, Endonuclease III-like protein 1 (Homo sapiens) (UniProt P78549); conditions: Hit No;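 also: enzyme assay tracking NTHL1 cutting and release of a quenched double-stranded DNA oligo substrate, read as fluorescence at 594 nm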
T1 sequence (whole entry): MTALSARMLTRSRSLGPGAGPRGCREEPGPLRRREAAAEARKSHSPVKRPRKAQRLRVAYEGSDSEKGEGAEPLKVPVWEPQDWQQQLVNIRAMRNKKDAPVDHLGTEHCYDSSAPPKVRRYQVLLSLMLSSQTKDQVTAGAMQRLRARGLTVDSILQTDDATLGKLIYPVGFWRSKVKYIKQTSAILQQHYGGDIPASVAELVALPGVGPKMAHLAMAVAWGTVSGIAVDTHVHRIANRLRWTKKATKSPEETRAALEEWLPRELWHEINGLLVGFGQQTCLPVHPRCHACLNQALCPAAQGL
Description: Inhibition of NTHL1 by quantifying inhibition of NTHL1-mediated cleavage and dissociation of quenched duplex DNA oligonucleotides, measured as fluorescence at 594 nm.

[4] = biological target: T2, Single-strand selective monofunctional uracil DNA glycosylase (Homo sapiens) (UniProt Q53HV7); conditions: Hit No;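 also: enzymatic SMUG1 assay coupled with APE1, reading fluorescence at 594 nm released when a quenched double-stranded DNA oligonucleotide substrate is cleaved and separated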
T2 sequence (whole entry): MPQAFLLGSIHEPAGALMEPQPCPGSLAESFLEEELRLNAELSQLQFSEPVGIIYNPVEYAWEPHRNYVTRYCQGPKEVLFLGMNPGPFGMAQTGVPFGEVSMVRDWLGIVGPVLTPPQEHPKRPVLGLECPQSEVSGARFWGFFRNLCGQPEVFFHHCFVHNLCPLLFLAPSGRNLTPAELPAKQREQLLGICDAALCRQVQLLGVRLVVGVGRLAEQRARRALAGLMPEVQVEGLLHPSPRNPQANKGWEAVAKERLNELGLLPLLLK
Description: Inhibition of SMUG1 by quantifying inhibition of SMUG1-mediated cleavage and dissociation of quenched duplex DNA oligonucleotides, measured as fluorescence at 594 nm. To generate a functional strand incision and increase turn-over this assay is coupled to APE1.

[5] = biological target: Endonuclease 8-like 1 (Homo sapiens) (UniProt Q96FI4); conditions: Hit No;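 also: fluorescence at 594 nm from quenched duplex DNA oligonucleotides released by NEIL1 cleavage and strand separation, reported as reduction of this enzyme activity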
Chain of Endonuclease 8-like 1 (Homo sapiens) (Q96FI4 whole entry): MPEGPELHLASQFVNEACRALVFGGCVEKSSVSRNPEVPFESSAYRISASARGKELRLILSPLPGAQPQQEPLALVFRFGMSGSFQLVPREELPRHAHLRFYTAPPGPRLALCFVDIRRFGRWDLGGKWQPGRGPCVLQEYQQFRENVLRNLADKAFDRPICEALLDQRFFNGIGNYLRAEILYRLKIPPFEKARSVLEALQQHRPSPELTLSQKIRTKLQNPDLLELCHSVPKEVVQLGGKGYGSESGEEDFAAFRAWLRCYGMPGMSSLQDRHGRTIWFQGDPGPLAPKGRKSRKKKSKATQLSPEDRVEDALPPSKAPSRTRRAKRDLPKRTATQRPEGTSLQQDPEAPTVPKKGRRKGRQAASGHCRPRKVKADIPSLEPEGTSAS
Description: Inhibition of NEIL1 by quantifying inhibition of NEIL1-mediated cleavage and dissociation of quenched duplex DNA oligonucleotides, measured as fluorescence at 594 nm.

[6] = biological target: G/T mismatch-specific thymine DNA glycosylase (Homo sapiens) (UniProt Q13569); conditions: Hit No;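 also: human TDG cleavage of quenched duplex DNA oligonucleotides coupled to APE1, strand release read as fluorescence at 594 nm, inhibition of TDG activity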
Chain of G/T mismatch-specific thymine DNA glycosylase (Homo sapiens) (Q13569 whole entry): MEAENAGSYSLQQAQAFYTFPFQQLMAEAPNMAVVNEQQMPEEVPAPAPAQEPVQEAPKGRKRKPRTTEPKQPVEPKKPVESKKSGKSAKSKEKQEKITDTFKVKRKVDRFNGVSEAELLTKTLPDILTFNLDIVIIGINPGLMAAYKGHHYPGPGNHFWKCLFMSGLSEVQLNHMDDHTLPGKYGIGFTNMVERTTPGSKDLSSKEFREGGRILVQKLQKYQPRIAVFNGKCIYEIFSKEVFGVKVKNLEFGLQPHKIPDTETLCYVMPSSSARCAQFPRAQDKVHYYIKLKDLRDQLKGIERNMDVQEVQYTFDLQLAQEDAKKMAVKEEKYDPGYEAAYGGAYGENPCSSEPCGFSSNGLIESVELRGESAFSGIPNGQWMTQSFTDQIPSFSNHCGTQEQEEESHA
Description: Inhibition of TDG by quantifying inhibition of TDG-mediated cleavage and dissociation of quenched duplex DNA oligonucleotides, measured as fluorescence at 594 nm. To generate a functional strand incision and increase turn-over this assay is coupled to APE1.

[7] = biological target: T3, Adenine DNA glycosylase (Homo sapiens) (UniProt Q9UIF7); conditions: Hit No;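 also: human MUTYH activity read as 594 nm fluorescence from cleavage and release of a quenched DNA duplex, coupled with APE1 for strand incision, lower signal meaning inhibition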
T3 sequence (whole entry): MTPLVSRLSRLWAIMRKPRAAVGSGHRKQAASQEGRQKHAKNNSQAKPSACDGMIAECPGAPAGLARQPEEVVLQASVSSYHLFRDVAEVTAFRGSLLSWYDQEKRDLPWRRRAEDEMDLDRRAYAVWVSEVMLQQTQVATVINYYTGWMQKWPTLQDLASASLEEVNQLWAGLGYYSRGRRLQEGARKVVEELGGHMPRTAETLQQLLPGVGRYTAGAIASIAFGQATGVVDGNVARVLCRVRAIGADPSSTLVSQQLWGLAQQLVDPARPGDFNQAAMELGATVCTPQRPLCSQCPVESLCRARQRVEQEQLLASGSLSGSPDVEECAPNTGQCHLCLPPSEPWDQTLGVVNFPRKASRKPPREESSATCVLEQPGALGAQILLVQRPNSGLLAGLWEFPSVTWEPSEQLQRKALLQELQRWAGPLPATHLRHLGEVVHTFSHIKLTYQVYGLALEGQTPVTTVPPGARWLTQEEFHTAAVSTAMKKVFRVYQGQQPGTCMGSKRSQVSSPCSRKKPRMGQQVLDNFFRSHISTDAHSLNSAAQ
Description: Inhibition of MUTYH by quantifying inhibition of MUTYH-mediated cleavage and dissociation of quenched duplex DNA oligonucleotides, measured as fluorescence at 594 nm. To generate a functional strand incision and increase turn-over this assay is coupled to APE1.

[8] = biological target: T4, Endonuclease 8-like 2 (Homo sapiens) (UniProt Q969S2);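 also: fluorescence at 594 nm reports NEIL2 cutting and release of a quenched double-stranded DNA oligo substrate, reduced signal read as inhibition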
T4 sequence (whole entry): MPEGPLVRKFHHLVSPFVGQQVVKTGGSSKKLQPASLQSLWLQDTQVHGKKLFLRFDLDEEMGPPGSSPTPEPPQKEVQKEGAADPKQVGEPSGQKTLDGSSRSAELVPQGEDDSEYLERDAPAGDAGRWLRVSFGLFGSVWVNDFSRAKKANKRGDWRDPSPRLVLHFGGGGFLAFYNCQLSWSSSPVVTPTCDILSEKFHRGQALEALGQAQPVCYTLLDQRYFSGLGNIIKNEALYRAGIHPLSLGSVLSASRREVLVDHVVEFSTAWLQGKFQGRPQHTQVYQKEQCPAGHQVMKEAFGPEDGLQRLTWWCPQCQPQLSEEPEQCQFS
Description: Inhibition of NEIL2 by quantifying inhibition of NEIL2-mediated cleavage and dissociation of quenched duplex DNA oligonucleotides, measured as fluorescence at 594 nm.

[9] = biological target: Methyl-CpG-binding domain protein 4 (Homo sapiens) (UniProt O95243); conditions: Hit No;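 also: MBD4 activity read as fluorescence at 594 nm from cleavage and release of a quenched duplex DNA oligonucleotide, with APE1 coupled to incise the strand and raise turnover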
Chain of Methyl-CpG-binding domain protein 4 (Homo sapiens) (O95243 whole entry, the tested form may be a part): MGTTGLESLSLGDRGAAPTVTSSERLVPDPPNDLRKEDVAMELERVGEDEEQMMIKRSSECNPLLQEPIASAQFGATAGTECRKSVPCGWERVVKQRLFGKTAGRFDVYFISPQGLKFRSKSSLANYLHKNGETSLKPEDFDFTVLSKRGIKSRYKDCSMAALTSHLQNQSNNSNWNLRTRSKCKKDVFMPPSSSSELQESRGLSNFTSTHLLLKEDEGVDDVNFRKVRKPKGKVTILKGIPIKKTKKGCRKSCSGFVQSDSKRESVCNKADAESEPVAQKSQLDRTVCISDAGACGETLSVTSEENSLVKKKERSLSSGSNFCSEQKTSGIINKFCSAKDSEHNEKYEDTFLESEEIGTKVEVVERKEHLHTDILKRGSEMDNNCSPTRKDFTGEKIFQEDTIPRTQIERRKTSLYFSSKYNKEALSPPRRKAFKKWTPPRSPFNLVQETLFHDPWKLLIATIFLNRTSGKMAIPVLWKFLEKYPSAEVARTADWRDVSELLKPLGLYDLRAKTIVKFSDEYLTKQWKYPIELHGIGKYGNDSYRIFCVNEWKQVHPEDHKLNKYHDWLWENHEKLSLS
Description: Inhibition of MBD4 by quantifying inhibition of MBD4-mediated cleavage and dissociation of quenched duplex DNA oligonucleotides, measured as fluorescence at 594 nm. To generate a functional strand incision and increase turn-over this assay is coupled to APE1.

[10] = Compound Concentration 10.0 uM, Hit No
[11] = Compound Concentration 1.0 uM, Hit No

Chain of N-glycosylase/DNA lyase (Homo sapiens) (O15527 whole entry): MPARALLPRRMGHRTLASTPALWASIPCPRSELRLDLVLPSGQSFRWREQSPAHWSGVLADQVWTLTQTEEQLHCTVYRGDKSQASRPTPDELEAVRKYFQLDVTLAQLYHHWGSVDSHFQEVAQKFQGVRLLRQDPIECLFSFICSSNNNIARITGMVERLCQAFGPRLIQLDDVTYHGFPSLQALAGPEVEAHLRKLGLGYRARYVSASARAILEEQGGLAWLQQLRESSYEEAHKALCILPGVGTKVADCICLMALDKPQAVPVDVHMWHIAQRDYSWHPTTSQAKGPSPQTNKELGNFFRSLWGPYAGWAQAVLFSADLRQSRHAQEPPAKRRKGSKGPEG

SMILES	inhibition ([1]; Compound Concentration 1.0 uM) [%]	inhibition ([2]; Compound Concentration 1.0 uM) [%]	inhibition ([3]; Compound Concentration 1.0 uM) [%]	inhibition ([4]; Compound Concentration 1.0 uM) [%]	inhibition ([5]; Compound Concentration 1.0 uM) [%]	inhibition ([6]; Compound Concentration 1.0 uM) [%]	inhibition ([7]; Compound Concentration 1.0 uM) [%]	inhibition ([2]; Compound Concentration 10.0 uM) [%]	inhibition ([3]; Compound Concentration 10.0 uM) [%]	inhibition ([4]; Compound Concentration 10.0 uM) [%]	inhibition ([6]; Compound Concentration 10.0 uM) [%]	inhibition ([7]; Compound Concentration 10.0 uM) [%]	inhibition ([1]; Compound Concentration 10.0 uM) [%]	inhibition [8, 10] [%]	inhibition ([5]; Compound Concentration 10.0 uM) [%]	inhibition ([8]; Compound Concentration 10.0 uM, Hit Yes) [%]	inhibition [8, 11] [%]	inhibition ([9]; Compound Concentration 10.0 uM) [%]	inhibition ([9]; Compound Concentration 1.0 uM) [%]
CNc1nc(Nc2cnn([C@H]3CCN(C4COC4)C[C@@H]3F)c2Cl)ncc1C(F)(F)F	-2.93	2.4	-6.19	15	-2.24	39.4	-1.03	–	–	–	–	–	–	–	–	–	–	–	–
COc1ccc(Oc2cc(NCCC(F)(F)F)c3ncc(-c4ccc(C(=O)NC5CC5)c(C)c4)n3n2)c(F)c1F	–	–	–	–	–	–	–	0.303	-2	5.15	93.1	-2.54	–	–	–	–	–	–	–
Cc1cccc([C@H](C)c2c[nH]cn2)c1C	–	–	–	–	–	–	–	–	-4.67	-5.51	18.4	5.65	-7.75	7.25	-5.1	–	–	–	–
C=CCN1C[C@H](C(=O)N(CCCN(C)C)C(=O)NCC)C[C@@H]2c3cccc4[nH]cc(c34)C[C@H]21	–	–	–	–	–	–	–	–	1.92	-9.96	-7.89	1.81	–	-3.73	10.6	–	–	–	–
OC[C@H]1O[C@@H](n2cnc3c(NC4CCCC4)ncnc32)[C@H](O)[C@@H]1O	–	–	–	–	–	–	–	–	7.05	-9.38	-6.42	9.75	–	11.2	2.61	–	–	–	–
COc1ccccc1CN[C@H]1C2CCN(CC2)[C@H]1C(c1ccccc1)c1ccccc1	–	–	–	–	–	–	–	-4.4	-5.41	–	0.738	11.2	-6.59	-6.97	-4.06	–	–	–	–
CCC(=O)NC[C@@H]1C[C@H]1c1cccc2c1CCO2	–	–	–	–	–	–	–	–	-4.67	–	4.27	2.71	1.29	-7.72	4.24	–	–	–	–
CC(C)NCC(O)COc1cccc2ccccc12 (centres undefined)	–	–	–	–	–	–	–	-6.12	13.7	3.41	5.22	3.6	–	–	-0.797	35	–	–	–
CNc1cc(Oc2cc(C(=O)Nc3cc(N4CCN(C)CC4)cc(C(F)(F)F)c3)ccc2C)ncn1	–	–	–	–	–	–	–	-3.12	11.9	-8.61	76.5	-9.46	–	–	–	–	–	–	–
CN(C)C/C=C/C(=O)Nc1cc2c(Nc3ccc(F)c(Cl)c3)ncnc2cc1O[C@H]1CCOC1	–	-1.9	4.97	-1.31	–	46.9	19.4	–	–	–	–	–	–	–	–	–	–	–	–
Cn1cc(-c2[nH]c3cc(NC(=O)[C@H](N)C4CCCCC4)cc4c3c2C=NNC4=O)cn1	–	0.598	-0.61	19.2	-1.18	43.2	-0.0556	–	–	–	–	–	–	–	–	–	-5.15	–	–
Cn1cnc2c(F)c(Nc3ccc(Br)cc3Cl)c(C(=O)NOCCO)cc21	–	–	–	–	–	–	–	-1.17	-8.28	16.2	39.7	-2.18	–	–	11.5	–	–	–	–
O=C(NNS(=O)(=O)c1ccccc1)c1cc(-c2ccnnc2)ccc1F	–	–	–	–	–	–	–	6.08	–	13.8	49.7	0.332	8.54	5.38	-4.38	–	–	88.3	–
CNC(=O)Nc1ccc(-c2nc(N3CC4CCC(C3)O4)c3cnn(C4CCC5(CC4)OCCO5)c3n2)cc1	–	–	–	–	–	–	–	6.27	2.88	15.7	46.1	5.83	–	–	2.52	–	–	–	–
NS(=O)(=O)c1cc(NC(=O)Cc2ccccc2)ccc1Oc1cccc(Cl)c1	–	–	–	–	–	–	–	6.44	–	25.9	87.5	-0.214	16.9	-2.53	-8.47	–	–	54.5	–
CCN(Cc1ccc(Cl)cc1)c1ncc(C(=O)NCCCN2CCCC2=O)c(NC2CCCC2)n1	–	–	–	–	–	–	–	8.58	–	17.5	63.4	3.34	-2.04	-8.65	-2.37	–	–	-8.97	–
CCCOc1ccc([C@@H]2[C@@H](C(=O)O)[C@H](c3ccc4c(c3)OCO4)CN2CC(=O)Nc2c(CC)cccc2CC)cc1	12	4.27	–	18.8	-3.17	57.1	-8.3	–	–	–	–	–	–	–	–	–	9.71	–	66.2
N[C@@H]1c2cccnc2[C@H](OC(=O)N2CCC(n3c(=O)[nH]c4ncccc43)CC2)CC[C@H]1c1cccc(F)c1F	–	–	–	–	–	–	–	–	-6.14	-4.73	6.23	-2.28	-5.76	0.515	-2.58	–	–	–	–
CC(=O)Nc1nc(C)c(S(=O)(=O)Nc2ccc(C(O)(C(F)(F)F)C(F)(F)F)cc2)s1	–	–	–	–	–	–	–	5.29	–	23	98.2	13.4	9.77	2.83	1.83	–	–	60.1	–
O=C(Cc1ccccc1)Nc1nnc(N2CC[C@@H]3[C@H]2CN3c2cccnn2)s1	3.62	9.87	–	9.42	0.316	43.7	7.76	–	–	–	–	–	–	–	–	–	-8.65	–	66
CC(C)c1c(CN(C)C(C)Cc2ccccc2)n(C)n(-c2ccccc2)c1=O (centres undefined)	–	–	–	–	–	–	–	1.7	–	23.9	100	11	21.4	-4.57	0.921	–	–	64.9	–
NC1(c2ccc(-c3nc4ccn5c(=O)[nH]nc5c4cc3-c3ccccc3)cc2)CCC1	–	–	–	–	–	–	–	17.3	–	29.1	71.2	56.1	10.8	-9.46	17.6	–	–	37.9	–
O=C(c1cc2c(cc1F)OC(c1ccc(F)cc1)(c1ccc(Cl)cc1Cl)O2)N1CCOCC1 (centres undefined)	–	–	–	–	–	–	–	-5.46	–	5.83	17.8	25.5	-5.3	8.5	3.95	–	–	-9.38	–
CC(=O)NCCc1c(Cc2ccccc2)[nH]c2ccccc12	–	–	–	–	–	–	–	–	2.66	–	16.3	0.533	-9.93	3.51	4.1	–	–	–	–
COc1cc(Nc2ncc3c(n2)-c2ccc(Cl)cc2C(c2c(F)cccc2OC)=NC3)ccc1C(=O)O	4.44	-1.28	–	19.5	-3.03	47.7	-7.52	–	–	–	–	–	–	–	–	–	-9.46	–	19.9
CN(C)[C@H]1CCN(c2cc(-c3ccccc3)nc3ccnn23)C1	–	–	–	–	–	–	–	9.72	–	13.5	49	15.6	10.6	9.71	6.98	–	–	77.8	–
COc1cc(-c2cn([C@H]3CCc4c(F)cccc4N(CC(F)(F)F)C3=O)nn2)ccc1-n1cnc(C)c1	–	–	–	–	–	–	–	4.8	–	19.7	47.4	0.879	6.38	11.2	-9.83	–	–	40	–
